Source: patent US4614714A (priority 1982, dated 1986)
“Also recorded” adds a separate entry of the source. Like-named read-outs stand apart in the source and are kept apart here.

Tests used:
[1] = target: T1, novel L-glutamic acid oxidase (Streptomyces sp, UniProt Q8L3C7); experiment: Effects of various additives on the activity of the novel enzyme; assay type: biochemical, Streptomyces sp. X-119-6; set-up: from the cultured product of an actinomycete newly isolated from a soil sample; made in house; host or cells: cultured product of the natural (non-recombinant) actinomycete strain, purified
T1 sequence (Q8L3C7 15-390 limits assumed): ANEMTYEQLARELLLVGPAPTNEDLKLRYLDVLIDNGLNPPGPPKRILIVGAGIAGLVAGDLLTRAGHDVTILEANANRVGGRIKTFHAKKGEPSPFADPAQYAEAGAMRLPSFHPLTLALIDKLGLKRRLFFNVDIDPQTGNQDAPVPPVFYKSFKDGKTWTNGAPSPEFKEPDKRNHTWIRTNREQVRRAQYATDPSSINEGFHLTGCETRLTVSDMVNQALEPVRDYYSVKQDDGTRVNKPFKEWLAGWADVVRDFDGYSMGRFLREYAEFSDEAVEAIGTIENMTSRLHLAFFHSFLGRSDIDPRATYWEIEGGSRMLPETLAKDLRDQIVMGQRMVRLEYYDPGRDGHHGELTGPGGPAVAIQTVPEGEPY
T1 sequence (Q8L3C7 391-520 limits assumed): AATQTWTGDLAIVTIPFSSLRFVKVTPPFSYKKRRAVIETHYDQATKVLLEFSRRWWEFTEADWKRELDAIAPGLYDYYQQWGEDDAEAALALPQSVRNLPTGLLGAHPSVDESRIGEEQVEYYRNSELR
T1 sequence (Q8L3C7 521-701 limits assumed): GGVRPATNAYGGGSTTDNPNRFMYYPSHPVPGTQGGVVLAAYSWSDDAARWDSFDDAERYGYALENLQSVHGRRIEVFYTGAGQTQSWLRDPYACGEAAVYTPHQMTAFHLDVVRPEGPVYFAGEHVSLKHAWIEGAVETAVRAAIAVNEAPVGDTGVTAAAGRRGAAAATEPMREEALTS

[2] = system: lyophilized cell of E. coli, which exhibits L-glutamic acid decarboxylase activity; details: microorganism electrode, cited from earlier work; for Relative sensitivity ratio: glutamic acid = 100
[3] = system: glutamic acid oxidase (known enzyme); details: cited from earlier work
[4] = target: T1, novel L-glutamic acid oxidase; experiment: Substrate specificity of the novel enzyme, oxygen electrode method
Method: The concentration of each substrate was 10 mM, and the reactions were carried out at pH 7.4 (0.1 M potassium phosphate buffer) and pH 6.0 (0.1 M acetate buffer).
That is, 1 ml of 0.1 M potassium phosphate buffer (pH 7.4) containing 10 mM sodium L-glutamate was charged into an oxygen electrode cell and 10 μl of an enzyme solution was added thereto to measure the oxygen consumption rate. One unit of enzyme was determined as the amount of enzyme which consumes 1μ mol of oxygen per minute at 30° C. in the absence of catalase (unit: hereinafter abbreviated as "U").

[5] = target: T2, immobilized L-glutamic acid oxidase (Streptomyces sp, UniProt Q8L3C7); experiment: Responses of the L-glutamic acid sensor of Example C1 to various amino acids; assay type: biochemical, Streptomyces sp. X-119-6
T2 construct: from the cultured product of an actinomycete newly isolated from a soil sample; made in house; host or cells: cultured product of the natural (non-recombinant) actinomycete strain; immobilized on a Cellophane membrane with glutaraldehyde
T2 sequence (Q8L3C7 15-390 limits assumed): T1 sequence (Q8L3C7 15-390 limits assumed)
T2 sequence (Q8L3C7 391-520 limits assumed): T1 sequence (Q8L3C7 391-520 limits assumed)
T2 sequence (Q8L3C7 521-701 limits assumed): T1 sequence (Q8L3C7 521-701 limits assumed)
Method: In FIG. 18, the sample solution 2 injected through inlet 1 is transferred by a peristaltic pump 4 together with oxygen saturated buffer 3 into a cell 5.
The results obtained by the measurement are shown as relative responses. The reaction was carried out in 0.1M of acetic acid-sodium acetate buffer at pH 5.5 and 30° C.

[6] = system: glutamic acid oxidase (known enzyme); details: cited from earlier work; for activity of the known enzyme: relative to L-glutamic acid; for relative activity of the known enzyme: velocity of enzymatic reaction for L-glutamic acid given as 100
[7] = additive 1 mM, pH 7.4, no addition = 100
[8] = pH 6, read-out: Relative Activity (%) pH 6.0, substrate 10 mM, pH 6.0 (0.1 M acetate buffer), relative to L-glutamic acid
[9] = pH 7.4, read-out: Relative Activity (%) pH 7.4, substrate 10 mM, pH 7.4 (0.1 M potassium phosphate buffer), relative to L-glutamic acid
[10] = pH 5.5; read-out: Relative response (%)
[11] = pH 5.5, read-out: Relative response (%)
[12] = pH 6, read-out: Relative Activity (%) pH 6.0
[13] = pH 7.4, read-out: Relative Activity (%) pH 7.4

Work on O=S(=O)([O-])[O-].O=S(=O)([O-])[O-].O=S(=O)([O-])[O-].[Al+3].[Al+3] [Al2 (SO4)3] yielded a Relative activity [1, 7] of 93.8.
For C[C@H](N)C(=O)O [Alanine], the Relative sensitivity ratio [2] is listed as 0.5.
In the case of N=C(N)NCCC[C@H](N)C(=O)O [Arginine], the Relative sensitivity ratio [2] is given as 0.6.
For N[C@@H](CC(=O)O)C(=O)O [Aspartic acid], the Relative sensitivity ratio [2] is listed as 1.0.
[Ba+2].[Cl-].[Cl-] [BaCl2] showed a Relative activity [1, 7] of 95.1.
Compound [Ca+2].[Cl-].[Cl-] [CaCl2] has a Relative activity [1, 7] of 100.0.
For [Cl][Cu][Cl] [CuCl2, cupric chloride], the “inhibition of the known enzyme (in words)” value [3] is given as “completely inhibited” and the “inhibition of the activity of the novel enzyme (in words)” value ([1]; additive 1 mM, pH 7.4) is given as “not inhibited at all”.
In the case of N[C@@H](CSSC[C@H](N)C(=O)O)C(=O)O [Cystine], the Relative sensitivity ratio [2] is listed as 0.4.
For N[C@H](CCC(=O)O)C(=O)O [D-Glutamic acid], the activity at 10000 µM [4, 8] was less than 0.1%, the “activity of the novel enzyme (in words)” value ([4]; pH 7.4) was “substantially no activity” and the activity at 10000 µM [4, 9] was less than 0.1%. The activity at 2000 µM [5, 10] was less than 0.1%.
In the case of CCN(CC)C(=S)S [DDTC, diethyldithiocarbamate], the activity at 1000 µM ([1]; additive 1 mM, pH 7.4, no addition = 100, read-out: Relative activity) is reported as 101%.
Compound O=C(O)CN(CCN(CC(=O)O)CC(=O)O)CC(=O)O [EDTA, ethylenediaminetetraacetic acid] has an activity at 1000 µM ([1]; pH 7.4, read-out: Relative activity) of 96.5%.
For N[C@@H](CCC(=O)O)C(=O)O [Glutamic acid], the Relative sensitivity ratio [2] is listed as 100.
For NC(=O)CC[C@H](N)C(=O)O [Glutamine], the “Relative sensitivity ratio, acetone treated cell” value ([2]; acetone treated cell was employed) is given as 11 and the Relative sensitivity ratio [2] is given as 108.
NCC(=O)O [Glycine] gave an activity at 10000 µM [4, 8] of less than 0.1%, an activity at 10000 µM [4, 9] of less than 0.1% and an activity at 2000 µM [5, 11] of less than 0.1%. The Relative sensitivity ratio [2] was 0.4.
For [Cl-].[K+] [KCl], the Relative activity [1, 7] was 111.1.
Work on [I-].[K+] [KI] yielded a Relative activity [1, 7] of 100.7.
C[C@H](N)C(=O)O [L-Alanine] showed an activity at 10000 µM [4, 8] of less than 0.1%, an activity at 10000 µM [4, 9] of less than 0.1% and an activity at 2000 µM [5, 11] of less than 0.1%.
With N=C(N)NCCC[C@H](N)C(=O)O [L-Arginine] the activity at 10000 µM [4, 8] was less than 0.1%, the activity at 10000 µM [4, 9] was less than 0.1% and the activity at 2000 µM [5, 11] was less than 0.1%.
In the case of NC(=O)C[C@H](N)C(=O)O [L-Asparagine], the activity at 10000 µM [4, 12] is reported as less than 0.1%, the activity at 10000 µM [4, 13] is reported as less than 0.1% and the activity at 2000 µM [5, 10] is reported as less than 1%.
For N[C@@H](CC(=O)O)C(=O)O [L-Aspartic acid], the “activity of the novel enzyme (in words)” value ([4]; pH 6.0) was “substantially no activity; also recorded: substantially no action”, the activity at 10000 µM [4, 8] was less than 0.1% and the activity at 10000 µM [4, 9] was 0.6%. For the same compound, the “Relative Activity (%) pH 6.0” value ([4]; substrate 10 mM, pH 6.0 (0.1 M acetate buffer), relative to L-glutamic acid) was no more than 0.1%, the activity at 2000 µM [5, 11] was less than 1% and the “activity of the known enzyme” value [6] was no more than 0.1%.
Compound N[C@@H](CS)C(=O)O [L-Cysteine] has an activity at 10000 µM [4, 8] of less than 0.1%, an activity at 10000 µM [4, 9] of less than 0.1% and an activity at 2000 µM [5, 11] of less than 0.1%.
Work on N[C@@H](CCC(=O)O)C(=O)O [L-Glutamic acid] yielded an activity at 10000 µM [4, 12] of 100%, an activity at 10000 µM [4, 13] of 100% and an activity at 2000 µM [5, 10] of 100%.
In the case of NC(=O)CC[C@H](N)C(=O)O [L-Glutamine], the activity at 10000 µM [4, 8] is reported as less than 0.1%, the “activity of the novel enzyme (in words)” value ([4]; pH 7.4) is reported as “substantially no activity” and the activity at 10000 µM [4, 9] is reported as less than 0.1%. For the same compound, the activity at 2000 µM [5, 11] was less than 2%, the “activity of the known enzyme” value [6] was 8.4% and the “relative activity of the known enzyme” value [6] was 8.4.
For N[C@@H](Cc1c[nH]cn1)C(=O)O [L-Histidine], the activity at 10000 µM [4, 12] was less than 0.1%, the “activity of the novel enzyme (in words)” value ([4]; pH 7.4) was “substantially no activity” and the activity at 10000 µM [4, 13] was less than 0.1%. The activity at 2000 µM [5, 10] was less than 0.1%, the “activity of the known enzyme” value [6] was 6.8% and the “relative activity of the known enzyme” value [6] was 6.8.
For CC[C@H](C)[C@H](N)C(=O)O [L-Isoleucine], the activity at 10000 µM [4, 8] was less than 0.1%, the activity at 10000 µM [4, 9] was less than 0.1% and the activity at 2000 µM [5, 11] was less than 0.1%.
CC(C)C[C@H](N)C(=O)O [L-Leucine] showed an activity at 10000 µM [4, 8] of less than 0.1%, an activity at 10000 µM [4, 9] of less than 0.1% and an activity at 2000 µM [5, 11] of less than 0.1%.
